This is an account of results in patent US10421770B2, “Pharmaceutical composition of carboplatin based co-crystals and use thereof” (SYN-NAT PRODUCTS ENTERPRISE LLC, priority 2015, dated 2019).

One assay deals with HCT-116 cells. Nature of the assay: cell viability (MTS) assay, HCT-116 colorectal cancer cells. The class given is cell-based. Particulars: drugs 0.01 to 300 μM, OD490, read-out: IC50 to reduce HCT-116 cell number. As to the method: HCT-116 cells are a colorectal cancer cell line. […] The index of cell growth repression ratio was obtained by comparing the OD490 data of treatment group to the negative control. The drug response rate IC50 was calculated with the SPSS 16.0 system.
(§1) Cell culture: Colorectal cancer cell lines HCT-116 and HT29 were purchased from ATCC (Manassas, Va.). The fetal hepatocytes HL-7002 and human embryonic kidney cells […] were purchased from ATCC. The cells were cultured in RPMI+5% Fetal Bovine Serum (FBS).
(§2) The cells treated with the solvents were used as the negative control, and cisplatin and docetaxel were used as the positive controls. The cells were monitored daily, and the cell viability was evaluated with the Promega CellTiter 96 AQueous One Solution Cell Proliferation Assay (Promega, Madison, Wis., USA) according to the manufacture manuals. The cell viability was monitored at OD490 reading in a bio-spectrometer (Perkin Elmer, Walthan, Mass., USA).
(§3) Data analysis: The OD490 reading data were collected hourly from 1 h to 4 h after the addition of lysis buffer. The index of cell growth repression ratio was obtained by comparing the OD490 data of treatment to the negative control. The drug response rate IC50 was calculated with the SPSS 16.0.

The subject of another assay is HT29 cells. The assay can be described thus: cell viability (MTS) assay, HT29 colorectal cancer cells. The class given is cell-based. The following applies: OD490, read-out: IC50 to reduce HT29 cell number. Here is the method:
HT29 cells are a colorectal cancer cell line. […] The index of cell growth repression ratio was obtained by comparing the OD490 data of treatment group to the negative control. The drug response rate IC50 was calculated with the SPSS 16.0 system.
as §1, §2, §3

The next assay has as its system HL-7002 cells. The assay can be described thus: cell viability (MTS) assay, fetal hepatocytes HL-7002. The class given is cell-based, human. Particulars: HL-7002 immortalized fetal hepatic cells, 0.01 to 300 μM, OD490, read-out: IC50 to reduce HL-7002 cell number. Here is the method: (§4) The index of cell growth repression ratio was obtained by comparing the OD490 data of treatment group to the negative control. The drug response rate IC50 was calculated with the SPSS 16.0 system.
(§5) Cell culture: Prostate cancer cell lines LNCaP and PC-3 were purchased from ATCC (Manassas, Va.). The fetal hepatocytes HL-7002 and human embryonic kidney cells […] were purchased from ATCC. The cells were cultured in RPMI+5% Fetal Bovine Serum (FBS).
as §2, §3
The index of cell growth repression ratio was obtained by comparing the OD490 data of treatment group to the negative control. The drug response rate IC50 was calculated with the SPSS 16.0 system. […]

The next assay deals with HEK293 cells. The assay can be described thus: cell viability (MTS) assay, embryonic kidney cell line HEK293. The class given is cell-based, human. Particulars: HEK293 immortalized fetal kidney cells, 0.01 to 300 μM, OD490, read-out: IC50 to reduce HEK293 cells. As to the method: HEK293 cells are an immortalized human fetal kidney cell line. […] The index of cell growth repression ratio was obtained by comparing the OD490 data of treatment group to the negative control. The drug response rate IC50 was calculated with the SPSS 16.0 system.
as §5, §2, §3, §4, §1

In the next assay the test system is LNCaP cells. The assay can be described thus: cell viability (MTS) assay, LNCaP prostate cancer cells. Type of assay: cell-based. The following applies: Homo sapiens, drugs 0.01 to 300 μM, OD490, read-out: IC50 to reduce LNCaP cell number. As to the method: (§6) The index of cell growth repression ratio was obtained by comparing the OD490 data of treatment group to the negative control. The drug response rate IC50 was calculated with the SPSS 16.0 system. Cell culture: Prostate cancer cell lines LNCaP and PC-3 were purchased from ATCC (Manassas, Va.). The fetal hepatocytes HL-7002 and human embryonic kidney cells […] were purchased from ATCC. The cells were cultured in RPMI+5% Fetal Bovine Serum (FBS). […] The cells treated with the solvents were used as the negative control, and cisplatin and docetaxel were used as the positive controls. The cells were monitored daily, and the cell viability was evaluated with the Promega CellTiter 96 AQueous One Solution Cell Proliferation Assay (Promega, Madison, Wis., USA) according to the manufacture manuals. The cell viability was monitored at OD490 reading in a bio-spectrometer (Perkin Elmer, Walthan, Mass., USA). Data analysis: The OD490 reading data were collected hourly from 1 h to 4 h after the addition of lysis buffer. The index of cell growth repression ratio was obtained by comparing the OD490 data of treatment to the negative control. The drug response rate IC50 was calculated with the SPSS 16.0.

For the next assay, the system named is PC-3 cells. The assay can be described thus: cell viability (MTS) assay, PC-3 prostate cancer cells. The class given is cell-based. Particulars: Homo sapiens, drugs 0.01 to 300 μM, OD490, read-out: IC50 to reduce PC-3 cell number. As to the method: as §6, with “Cell culture: Prostate cancer cell lines LNCaP and PC-3 were purchased from ATCC (Manassas, Va.).” left out

The structures appear in SMILES notation. Where two headings read alike, the source gives them in different places.

In general, IC50 refers to the concentration that gives 50% inhibition.

Turning to `O=c1[nH]cc(F)c(=O)[nH]1` [5-FU, fluorouracil], the IC50 was found to be 4.21 µM in the assay with HCT-116 cells (Homo sapiens); 7.56 µM in the assay on HT29 cells (Homo sapiens, HT-29, drugs 0.01 to 300 μM); 4.42 µM in the assay with HL-7002 cells (Homo sapiens, Hepatocyte); 3.74 µM with HEK293 cells (Homo sapiens).
As for `CC(=O)O[C@@]12CO[C@@H]1C[C@H](O)[C@@]1(C)C(=O)[C@H](O)C3=C(C)[C@@H](OC(=O)[C@H](O)[C@@H](NC(=O)OC(C)(C)C)c4ccccc4)C[C@@](O)([C@@H](OC(=O)c4ccccc4)[C@H]21)C3(C)C` [docetaxel], the IC50 with LNCaP cells came to 4.03 µM; in the assay on HEK293 cells (Homo sapiens), 1.74 µM; with PC-3 cells, 49.9 µM.
Consider `O=C1[O][Pt]2([NH][C@@H]3CCCC[C@H]3[NH]2)[O]C1=O` [oxaliplatin], for which the half-maximal inhibitory concentration (IC50) came out at 8.15 µM in the assay with HCT-116 cells, 30 µM with HT29 cells (drugs 0.01 to 300 μM), 2.44 µM in the assay with HL-7002 cells and 10.1 µM in the assay on HEK293 cells.
